Assay results taken from ChEMBL document CHEMBL3885881, “DrugMatrix”.

Species on record: Rattus norvegicus
Assay: DrugMatrix - Regimen: Daily Repeat
Assay type: toxicity, organism-based, Sprague-Dawley
Set-up: regimen Daily Repeat, gender Male, age 6-8 weeks
Settings: in vivo, po, 2 mg/kg, route oral GAVAGE, dose level Low, vehicle .5 % CMC; for ABSOLUTE BASOPHIL / ABSOLUTE EOSINOPHIL / ABSOLUTE LYMPHOCYTE / ABSOLUTE MONOCYTE / ABSOLUTE SEGMENTED NEUTROPHIL / BASOPHIL / EOSINOPHIL / ERYTHROCYTE COUNT / HEMATOCRIT / HEMOGLOBIN / LEUKOCYTE COUNT / LYMPHOCYTE / MEAN CORPUSCULAR HEMOGLOBIN / MEAN CORPUSCULAR HEMOGLOBIN CONCENTRATION / MEAN CORPUSCULAR VOLUME / MONOCYTE / NEUTROPHIL / NUCLEATED RED BLOOD CELLS / PLATELET COUNT: tissue Blood; for ALANINE AMINOTRANSFERASE / ALBUMIN / ALKALINE PHOSPHATASE / ASPARTATE AMINOTRANSFERASE / BLOOD UREA NITROGEN / CARBON DIOXIDE / CHLORIDE / CHOLESTEROL / CREATINE PHOSPHOKINASE / CREATININE / GLUCOSE / LACTATE DEHYDROGENASE / LIPASE / PHOSPHORUS / POTASSIUM / SODIUM / TOTAL BILIRUBIN / TOTAL PROTEIN / URIC ACID: tissue Plasma

## Nc1cc(N2CCCCC2)nc(N)[n+]1[O-] [MINOXIDIL]
72 h, time 3 day
  ABSOLUTE BASOPHIL: 0 CELLS/uL
  ABSOLUTE EOSINOPHIL: 0 CELLS/uL
  ABSOLUTE LYMPHOCYTE: 9089 CELLS/uL
  ABSOLUTE MONOCYTE: 42.33 CELLS/uL
  ABSOLUTE SEGMENTED NEUTROPHIL: 735.33 CELLS/uL
  BASOPHIL: 0%
  EOSINOPHIL: 0%
  ERYTHROCYTE COUNT: 4.78 x10E6/uL
  HEMATOCRIT: 30.6%
  HEMOGLOBIN: 12.57 G/DL
  LEUKOCYTE COUNT: 9.87 x10E3/uL
  LYMPHOCYTE: 92%
  MEAN CORPUSCULAR HEMOGLOBIN: 26.3 pg
  MEAN CORPUSCULAR HEMOGLOBIN CONCENTRATION: 41.1 G/DL
  MEAN CORPUSCULAR VOLUME: 64.07 fL
  MONOCYTE: 0.33%
  NEUTROPHIL: 7.67%
  NUCLEATED RED BLOOD CELLS: 0 /100WBC
  PLATELET COUNT: 1041 x10E3/uL
  ALANINE AMINOTRANSFERASE: 50.33 u/L
  ALBUMIN: 4.3 G/DL
  ALKALINE PHOSPHATASE: 415 u/L
  ASPARTATE AMINOTRANSFERASE: 94.33 u/L
  BLOOD UREA NITROGEN: 18 mg/dL
  CARBON DIOXIDE: 35.33 mmol/L
  CHLORIDE: 100.67 MEQ/L
  CHOLESTEROL: 74.67 mg/dL
  CREATINE PHOSPHOKINASE: 368.67 u/L
  CREATININE: 0.23 mg/dL
  GLUCOSE: 127.67 mg/dL
  LACTATE DEHYDROGENASE: 159 u/L
  LIPASE: 10 u/L
  PHOSPHORUS: 11.3 mg/dL
  POTASSIUM: 6.23 MEQ/L
  SODIUM: 147.5 MEQ/L
  TOTAL BILIRUBIN: 0.1 mg/dL
  TOTAL PROTEIN: 6.03 G/DL
  URIC ACID: 0.93 mg/dL
120 h, time 5 day
  ABSOLUTE BASOPHIL: 0 CELLS/uL
  ABSOLUTE EOSINOPHIL: 0 CELLS/uL
  ABSOLUTE LYMPHOCYTE: 14468 CELLS/uL
  ABSOLUTE MONOCYTE: 213.67 CELLS/uL
  ABSOLUTE SEGMENTED NEUTROPHIL: 818.33 CELLS/uL
  BASOPHIL: 0%
  EOSINOPHIL: 0%
  ERYTHROCYTE COUNT: 5.34 x10E6/uL
  HEMATOCRIT: 33.6%
  HEMOGLOBIN: 13.27 G/DL
  LEUKOCYTE COUNT: 15.5 x10E3/uL
  LYMPHOCYTE: 93.33%
  MEAN CORPUSCULAR HEMOGLOBIN: 24.8 pg
  MEAN CORPUSCULAR HEMOGLOBIN CONCENTRATION: 39.47 G/DL
  MEAN CORPUSCULAR VOLUME: 62.9 fL
  MONOCYTE: 1.33%
  NEUTROPHIL: 5.33%
  NUCLEATED RED BLOOD CELLS: 0 /100WBC
  PLATELET COUNT: 1308.33 x10E3/uL
  ALANINE AMINOTRANSFERASE: 52 u/L
  ALBUMIN: 4.33 G/DL
  ALKALINE PHOSPHATASE: 362.67 u/L
  ASPARTATE AMINOTRANSFERASE: 78.67 u/L
  BLOOD UREA NITROGEN: 18 mg/dL
  CARBON DIOXIDE: 33 mmol/L
  CHLORIDE: 102 MEQ/L
  CHOLESTEROL: 75.33 mg/dL
  CREATINE PHOSPHOKINASE: 156.33 u/L
  CREATININE: 0.2 mg/dL
  GLUCOSE: 153 mg/dL
  LACTATE DEHYDROGENASE: 135.67 u/L
  LIPASE: 8.67 u/L
  PHOSPHORUS: 14.1 mg/dL
  POTASSIUM: 6.87 MEQ/L
  SODIUM: 146.73 MEQ/L
  TOTAL BILIRUBIN: 0.27 mg/dL
  TOTAL PROTEIN: 6.27 G/DL
  URIC ACID: 1.43 mg/dL
